The target of one test is T1, αV25′A β-αWT GlyR (Homo sapiens, UniProt P23415+P48167, V305A).
T1 construct: The α R218-Q219 and β R242-Q243 are also the joining sites for chimeras constructed between the ECD and TMD; expressed in transfected cells; host or cells: HEK293 (ATCC)
T1 sequence (P23415 29-449 isoform P23415-2 V305A): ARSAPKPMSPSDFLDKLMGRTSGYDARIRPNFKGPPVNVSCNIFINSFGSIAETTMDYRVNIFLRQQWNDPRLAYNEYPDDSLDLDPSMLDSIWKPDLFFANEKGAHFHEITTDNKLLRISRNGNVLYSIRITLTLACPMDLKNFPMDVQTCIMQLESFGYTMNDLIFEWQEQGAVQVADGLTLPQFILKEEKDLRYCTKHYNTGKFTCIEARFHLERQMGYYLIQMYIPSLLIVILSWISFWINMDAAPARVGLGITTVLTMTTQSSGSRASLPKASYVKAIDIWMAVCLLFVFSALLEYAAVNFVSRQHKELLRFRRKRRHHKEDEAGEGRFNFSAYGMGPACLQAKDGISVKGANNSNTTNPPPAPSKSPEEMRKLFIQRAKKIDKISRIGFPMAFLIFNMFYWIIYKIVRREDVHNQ
T1 sequence (P48167+P23415 with tags, fused parts or gaps P48167:V266M/P48167:F268Y/P48167:M270L/P48167:M271I/P48167:G272Q/P48167:V273M/P48167:A275I/P48167:T277S/P48167:V282I/P48167:L286I/P48167:P292M/P48167:S295A/P48167:A296P/P48167:P300G): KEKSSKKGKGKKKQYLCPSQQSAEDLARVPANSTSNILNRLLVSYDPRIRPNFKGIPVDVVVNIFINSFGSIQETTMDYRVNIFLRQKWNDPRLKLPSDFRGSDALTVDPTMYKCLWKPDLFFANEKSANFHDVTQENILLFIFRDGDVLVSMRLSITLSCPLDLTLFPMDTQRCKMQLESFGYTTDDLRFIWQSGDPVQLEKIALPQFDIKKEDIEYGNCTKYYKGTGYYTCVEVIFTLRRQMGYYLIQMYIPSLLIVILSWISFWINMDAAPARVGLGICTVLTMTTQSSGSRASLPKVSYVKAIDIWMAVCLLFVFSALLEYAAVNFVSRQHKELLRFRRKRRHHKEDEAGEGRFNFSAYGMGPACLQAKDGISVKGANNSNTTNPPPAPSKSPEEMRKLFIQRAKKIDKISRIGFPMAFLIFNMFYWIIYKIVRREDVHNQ
It counts as cell-based. As to the method:
(§1) The human GlyR α1 and β subunit cDNAs were subcloned into the pcDNA3.1zeo+ (Invitrogen) or pGEMHE [44] plasmid vectors for expression in HEK293 cells or Xenopus oocytes, respectively. Site-directed mutagenesis and chimera construction were performed using the QuickChange (Stratagene, La Jolla, CA, USA) mutagenesis and multiple-template-based sequential PCR protocols, respectively.
(§2) For the β-α chimeras used for determining the effect of hyperekplexia-mimicking mutations on α1 β GlyR channel function, the Thr at the M2 6′ position was replaced by a Cys. […] Through such a modification, picrotoxin resistance was used to distinguish the heteromeric α1 β-α GlyR from the homomeric α1 GlyR when the α1 and β-α subunits were co-expressed.
(§3) The effects of the hyperekplexia-mimicking mutations, K24′A, V25′A and Y27′A, were examined on GlyRs expressed in HEK293 cells (ATCC). Details of the HEK293 cell culture, GlyR expression and electrophysiological recording of the HEK293 cells are described elsewhere. Briefly, HEK293 cells were maintained in DMEM supplemented with 10% fetal bovine serum. Cells were transfected using a calcium phosphate precipitation protocol. When co-transfecting the α1 together with the β or any other chimera subunits, their respective cDNAs were combined in a ratio of 1∶10. In addition, the pEGFP-N1 (Clontech) was co-transfected to facilitate identifying the transfected cells. […] Cells were treated with external Ringer's solution and internal CsCl solution [30]. Cells were voltage-clamped at −40 mV. When the heteromeric GlyRs were expressed, the picrotoxin sensitivity was tested to confirm that the majority of receptors are heteromers, [30].
(§4) Results are expressed as mean±standard error of the mean of three or more independent experiments. […] Statistical significance was determined using the Student's t-test.

A further test deals with T2, αWT β-αY27′A GlyR (Homo sapiens, UniProt P23415+P48167, A275I/A296P/F268Y/G272Q/L286I/M270L/M271I/P292M/P300G/S295A/T277S/V266M/V273M/V282I/Y307A).
T2 construct: The α R218-Q219 and β R242-Q243 are also the joining sites for chimeras constructed between the ECD and TMD; expressed in transfected cells; host or cells: HEK293 cells (ATCC), pcDNA3.1zeo+
T2 sequence (P23415 29-449 isoform P23415-2): T1 sequence (P23415 29-449 isoform P23415-2 V305A) with A277V
T2 sequence (P48167+P23415 with tags, fused parts or gaps P48167:V266M/P48167:F268Y/P48167:M270L/P48167:M271I/P48167:G272Q/P48167:V273M/P48167:A275I/P48167:T277S/P48167:V282I/P48167:L286I/P48167:P292M/P48167:S295A/P48167:A296P/P48167:P300G/P23415:Y307A): T1 sequence (P48167+P23415 with tags, fused parts or gaps P48167:V266M/P48167:F268Y/P48167:M270L/P48167:M271I/P48167:G272Q/P48167:V273M/P48167:A275I/P48167:T277S/P48167:V282I/P48167:L286I/P48167:P292M/P48167:S295A/P48167:A296P/P48167:P300G) with Y303A
It counts as cell-based. Here is the method: as §1, §2, §3, §4

Where [1] appears, read: αV25′A β-αWT, HEK293, with glycine at EC50 of α1 homomer.
Setting [2] is: αWT β-αY27′A, HEK293, with glycine at EC50 of α1 homomer.

Substitutions are numbered along the chain they refer to.

`NCC(=O)O` [glycine]: on αV25′A β-αWT GlyR, the Imax amounted to 8.9±1.5 nA and the nH is 1.7±0.3. At αWT β-αY27′A GlyR, this compound yielded an Imax of 6.5±1.6 nA and a nH of 2.1±0.6.
picrotoxin [PTX]: the “10uM PTX inhibition (%)” value was determined as 12.0±2.5% on αV25′A β-αWT GlyR (setting [1]) and 22±7% on αWT β-αY27′A GlyR (setting [2]). The “100uM PTX inhibition (%)” value stood at 37±6% at αV25′A β-αWT GlyR (setting [1]) and 48±4% at αWT β-αY27′A GlyR (setting [2]).

Source of the values: article PMC3222680 (PLoS ONE, 2011).
